Among the data in patent publication US9694016B2 (Novartis AG, priority 2013, dated 2017) are IC50 values, retold here.

In the first test the target is b-Raf (V600E) (Homo sapiens (Human), UniProt P15056, V600E). Conditions: read-out: b-Raf IC-50; AlphaScreen, 60 min pre-incubation, 3 hours reaction.
Chain of b-Raf (V600E) (P15056 whole entry V600E): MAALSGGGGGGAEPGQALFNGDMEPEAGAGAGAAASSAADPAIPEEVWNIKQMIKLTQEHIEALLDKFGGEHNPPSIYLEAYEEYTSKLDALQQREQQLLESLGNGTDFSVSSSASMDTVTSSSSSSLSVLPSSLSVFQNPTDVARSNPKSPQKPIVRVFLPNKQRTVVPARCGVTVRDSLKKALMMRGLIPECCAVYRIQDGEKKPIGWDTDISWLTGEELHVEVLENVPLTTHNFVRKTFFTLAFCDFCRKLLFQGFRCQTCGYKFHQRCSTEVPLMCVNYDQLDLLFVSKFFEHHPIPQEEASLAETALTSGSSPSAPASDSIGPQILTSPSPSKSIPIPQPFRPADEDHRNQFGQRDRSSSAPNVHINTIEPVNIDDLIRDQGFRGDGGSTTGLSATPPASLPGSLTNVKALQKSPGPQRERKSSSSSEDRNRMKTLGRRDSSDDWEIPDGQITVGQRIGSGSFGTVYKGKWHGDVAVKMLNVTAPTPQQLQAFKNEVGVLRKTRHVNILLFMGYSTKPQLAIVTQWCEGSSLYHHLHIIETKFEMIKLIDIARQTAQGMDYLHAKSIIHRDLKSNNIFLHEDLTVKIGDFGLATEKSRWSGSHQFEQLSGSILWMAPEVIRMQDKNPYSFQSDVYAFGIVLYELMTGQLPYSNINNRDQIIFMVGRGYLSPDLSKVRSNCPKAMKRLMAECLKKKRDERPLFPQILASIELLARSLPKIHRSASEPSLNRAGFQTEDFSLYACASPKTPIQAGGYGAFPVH
With `Cc1ccc(NC(=O)c2ccnc(C(C)C)c2)cc1-c1cc(N2CCOCC2)n(C)c(=O)c1` [Example 482, 2-isopropyl-N-(4-methyl-3-(1-methyl-6-morpholino-2-oxo-1,2-dihydropyridin-4-yl)phenyl)isonicotinamide], the IC50 was 0.6 nM.

As for `Cc1ncc(NC(=O)c2ccnc(C(C)(C)C#N)c2)cc1-c1cc(N2CCOCC2)nc(NC2(CO)CCOCC2)n1` [Example 753, 2-(2-cyanopropan-2-yl)-N-(5-(2-((4-(hydroxymethyl)tetrahydro-2H-pyran-4-yl)amino)-6-morpholinopyrimidin-4-yl)-6-methylpyridin-3-yl)isonicotinamide], the IC50 stood at 30.9 nM.

As for `CCNc1nc(-c2cc(NC(=O)c3ccnc(C4COC4)c3)cnc2C)cc(N2CCOCC2)n1` [Example 729, N-(5-(2-(ethylamino)-6-morpholinopyrimidin-4-yl)-6-methylpyridin-3-yl)-2-(oxetan-3-yl)isonicotinamide], the IC50 was 17.7 nM. On the same count and under the same terms, under `CCNc1nc(-c2cc(NC(=O)c3ccnc(S(C)(=O)=O)c3)ccc2C)cc(N2CCOCC2)n1` [Example 702, N-(3-(2-(ethylamino)-6-morpholinopyrimidin-4-yl)-4-methylphenyl)-2-(methylsulfonyl)isonicotinamide] stands 3 nM. With `Cc1ccc(NC(=O)c2ccnc(C(C)C)c2)cc1-c1cc(N2CCOCC2)nc(N2CC(O)C2)n1` [Example 771, N-(3-(2-(3-hydroxyazetidin-1-yl)-6-morpholinopyrimidin-4-yl)-4-methylphenyl)-2-isopropylisonicotinamide], the IC50 stood at 2.5 nM. The same measure, in the same setting: under `Cc1ccc(NC(=O)c2ccnc(C(F)(F)F)c2)cc1-c1cc(N2CCOCC2)c(=O)n(C)n1` [Example 658, N-(4-methyl-3-(1-methyl-5-morpholino-6-oxo-1,6-dihydropyridazin-3-yl)phenyl)-2-(trifluoromethyl)isonicotinamide] stands 3.1 nM.

`CCNc1nc(-c2cc(NC(=O)c3ccnc(C(C)(C)O)c3)ccc2C)cc(N2CCOC[C@@H]2C)n1` [Example 713, (S)—N-(3-(2-(ethylamino)-6-(3-methylmorpholino)pyrimidin-4-yl)-4-methylphenyl)-2-(2-hydroxypropan-2-yl)isonicotinamide]: the IC50 was 2.5 nM. On the same count and under the same terms, under `Cc1ncc(NC(=O)c2cccc(C(F)(F)F)c2)cc1-c1ccc(C#N)c(N2CCOCC2)c1` [Example 684] stands 2.9 nM. On the same count and under the same terms, under `Cc1ccc(C(=O)Nc2cccc(C(C)(C)O)c2)cc1-c1cc(N2CCOCC2)n(C)c(=O)c1` [Example 516, N-(3-(2-hydroxypropan-2-yl)phenyl)-4-methyl-3-(1-methyl-6-morpholino-2-oxo-1,2-dihydropyridin-4-yl)benzamide] stands 17.7 nM; under `Cc1ccc(NC(=O)c2ccnc(C(C)(C)O)c2)cc1-c1cc(N2CCOCC2)n(C)c(=O)c1` [Example 483, 2-(2-hydroxypropan-2-yl)-N-(4-methyl-3-(1-methyl-6-morpholino-2-oxo-1,2-dihydropyridin-4-yl)phenyl)isonicotinamide], 3.5 nM. Consider `Cc1ccc(NC(=O)c2ccnc(C(C)(F)F)c2)cc1-c1cc(N2CCOC[C@@H]2C)n(C)c(=O)c1` [Example 525, (S)-2-(1,1-difluoroethyl)-N-(4-methyl-3-(1-methyl-6-(3-methylmorpholino)-2-oxo-1,2-dihydropyridin-4-yl)phenyl)isonicotinamide], for which the IC50 amounted to 3.8 nM.

Take `CCOc1nnc(-c2cc(NC(=O)c3cccc(C(F)(F)F)c3)cnc2C)cc1N1CCOC[C@@H]1C` [Example 571, (S)—N-(5-(6-ethoxy-5-(3-methylmorpholino)pyridazin-3-yl)-6-methylpyridin-3-yl)-3-(trifluoromethyl)benzamide]: the IC50 worked out at 2.5 nM. Same read-out and setting: the value for `Cc1ncc(NC(=O)c2ccnc(C(C)(C)C#N)c2)cc1-c1cc(N2CCOCC2)nc(NC(C)(C)CO)n1` [Example 750, 2-(2-cyanopropan-2-yl)-N-(5-(2-((1-hydroxy-2-methylpropan-2-yl)amino)-6-morpholinopyrimidin-4-yl)-6-methylpyridin-3-yl)isonicotinamide] was 22.4 nM. The same measure, in the same setting: the value for `Cc1ncc(C(=O)Nc2cccc(C(C)(C)C#N)c2)cc1-c1cc(N2CCOCC2)c(=O)n(C)c1` [Example 444, N-(3-(2-cyanopropan-2-yl)phenyl)-1′,2-dimethyl-5′-morpholino-6′-oxo-1′,6′-dihydro-[3,3′-bipyridine]-5-carboxamide] was 44.8 nM.

As for `Cc1ccc(NC(=O)c2ccnc(C(C)(C)C#N)c2)cc1-c1cc(N2CCOCC2)c(OC2CCOCC2)nn1` [Example 584, 2-(2-cyanopropan-2-yl)-N-(4-methyl-3-(5-morpholino-6-((tetrahydro-2H-pyran-4-yl)oxy)pyridazin-3-yl)phenyl)isonicotinamide], the IC50 turned out to be 1.2 nM.

Staying with this test, now noted: read-out: b-Raf IC-50; AlphaScreen, 60 min pre-incubation, reaction 3 hours at room temperature.
In the case of `Cc1ncc(NC(=O)c2cc(C(C)(C)F)ccn2)cc1-c1cnc(OC(C)C)c(N2CCOCC2)c1` [Example 957, 4-(2-fluoropropan-2-yl)-N-(6′-isopropoxy-2-methyl-5′-morpholino-[3,3′-bipyridin]-5-yl)picolinamide], the IC50 is 6.23 nM. Consider `Cc1ccc(NC(=O)c2cccc(C(F)F)c2)cc1-c1nc2c(c(N3CCOCC3)n1)S(=O)(=O)CC2` [Example 854, 3-(difluoromethyl)-N-(4-methyl-3-(4-morpholino-5,5-dioxido-6,7-dihydrothieno[3,2-d]pyrimidin-2-yl)phenyl)benzamide], for which the IC50 is 0.8 nM. The same measure, in the same setting: the value for `CCOc1cc(-c2cc(NC(=O)c3ccnc(C(C)(C)F)c3)cnc2C)cc(N2CCOCC2)n1` [Example 1142, N-(2′-ethoxy-2-methyl-6′-morpholino-[3,4′-bipyridin]-5-yl)-2-(2-fluoropropan-2-yl)isonicotinamide] was 3.18 nM; that for `Cc1ncc(NC(=O)c2ccc(C#N)c(C(F)(F)F)c2)cc1-c1cc(N2CCOCC2)c2nccn2c1` [Example 877, 4-cyano-N-(6-methyl-5-(8-morpholinoimidazo[1,2-a]pyridin-6-yl)pyridin-3-yl)-3-(trifluoromethyl)benzamide] was 6.5 nM; that for `COc1nnc(-c2cc(C(=O)Nc3ccnc(C(F)(F)F)c3)ccc2C)cc1N1CCOCC1` [Example 1017, 3-(6-methoxy-5-morpholinopyridazin-3-yl)-4-methyl-N-(2-(trifluoromethyl)pyridin-4-yl)benzamide] was 0.98 nM. Still for that read-out and setting: the value for `Cc1ncc(NC(=O)c2cc(C(C)(C)F)ccn2)cc1-c1cnc(OC2CC3(COC3)C2)c(N2CCOCC2)c1` [Example 968, N-(6′-(2-oxaspiro[3.3]heptan-6-yloxy)-2-methyl-5′-morpholino-[3,3′-bipyridin]-5-yl)-4-(2-fluoropropan-2-yl)picolinamide] was 3.72 nM; that for `Cc1ccc(NC(=O)c2ccnc(S(C)(=O)=O)c2)cc1-c1cc(N2CCOCC2)c2nccn2c1` [Example 851] was 0.9 nM; that for `Cc1ncc(NC(=O)c2cccc(C(F)F)c2)cc1-c1cc(N2CCOCC2)nc(N2CC(O)C2)c1` [Example 1079, 3-(difluoromethyl)-N-(2′-(3-hydroxyazetidin-1-yl)-2-methyl-6′-morpholino-[3,4′-bipyridin]-5-yl)benzamide] was 4.64 nM. Still for that read-out and setting: the value for `Cc1ccc(C(=O)Nc2cccc(C(F)(F)F)c2)cc1-c1nc2c(c(N3CCOCC3)n1)CNC2` [Example 889, 4-methyl-3-(4-morpholino-6,7-dihydro-5H-pyrrolo[3,4-d]pyrimidin-2-yl)-N-(3-(trifluoromethyl)phenyl)benzamide] was 3.3 nM. As to `Cc1ncc(NC(=O)c2cc(C(C)(C)C#N)ccn2)cc1-c1cnc(OC2CC3(COC3)C2)c(N2CCOCC2)c1` [Example 970, N-(6′-(2-oxaspiro[3.3]heptan-6-yloxy)-2-methyl-5′-morpholino-[3,3′-bipyridin]-5-yl)-4-(2-cyanopropan-2-yl)picolinamide], the IC50 came out at 8.79 nM.

Turning to `CCOc1cc(-c2cc(NC(=O)c3ccnc(C(F)F)c3)cnc2C)cc(N2CCOCC2)n1` [Example 1146, 2-(difluoromethyl)-N-(2′-ethoxy-2-methyl-6′-morpholino-[3,4′-bipyridin]-5-yl)isonicotinamide], the IC50 came to 1.87 nM.

The test is the same for the next values; noted with them: read-out: b-Raf IC-50; Table 2; AlphaScreen, 3 hours reaction.
In the case of `Cc1ncc(NC(=O)c2ccnc(C(C)(C)C#N)c2)cc1-c1cnc(OCC(F)F)c(N2CCOCC2)c1` [Example 228, 2-(2-cyanopropan-2-yl)-N-(6′-(2,2-difluoroethoxy)-2-methyl-5′-morpholino-[3,3′-bipyridin]-5-yl)isonicotinamide], the IC50 is 4.7 nM. Same read-out and setting: under `Cc1ncc(NC(=O)c2cccc(OC(C)C)c2)cc1-c1cc(N2CCOCC2)c(=O)n(C)c1` [Example 398, N-(1′,2-dimethyl-5′-morpholino-6′-oxo-1′,6′-dihydro-[3,3′-bipyridin]-5-yl)-3-isopropoxybenzamide] stands 8.4 nM. On the same count and under the same terms, under `Cn1cc(-c2cc(NC(=O)c3cccc(C(F)F)c3)ccc2Cl)cc(N2CCOCC2)c1=O` [Example 412, N-(4-chloro-3-(1-methyl-5-morpholino-6-oxo-1,6-dihydropyridin-3-yl)phenyl)-3-(difluoromethyl)benzamide] stands 0.8 nM. The same measure, in the same setting: under `Cc1ncc(NC(=O)c2ccnc(C(C)(C)C#N)c2)cc1-c1cnc(N(C)C)c(N2CCOCC2)c1` [Example 265, 2-(2-cyanopropan-2-yl)-N-(6′-(dimethylamino)-2-methyl-5′-morpholino-[3,3′-bipyridin]-5-yl)isonicotinamide] stands 4.5 nM; under `Cc1ncc(NC(=O)c2ccnc(C3(C#N)CC3)c2)cc1-c1cnc(Cl)c(N2CCOCC2)c1` [Example 288, N-(6′-chloro-2-methyl-5-morpholino-[3,3′-bipyridin]-5-yl)-2-(1-cyanocyclopropyl)isonicotinamide], 6 nM; under `Cc1ncc(NC(=O)c2cccc(C(F)(F)F)c2)cc1-c1cnc(N(C)C)c(N2CCOCC2)c1` [Example 307, N-(6′-(dimethylamino)-2-methyl-5′-morpholino-[3,3′-bipyridin]-5-yl)-3-(trifluoromethyl)benzamide], 0.6 nM.
